Patent US7928135B2, “Benzene, pyridine, and pyridazine derivatives” (Serenex, Inc., priority 2005, dated 2011)

Tests used:
PC-3 cell proliferation = assay: Cell proliferation assay (WST-1), PC-3; format: cell-based; conditions: Homo sapiens; PC-3 cells, WST-1 readout; read-out: inhibitory activity against PC-3 cell proliferation (IC50 range)
Procedure: A panel of cancer cell lines was obtained from the DCTP Tumor Repository, National Cancer Institute (Frederick, Md.) or ATCC (Rockville, Md.). Cell cultures were maintained in Hyclone RPMI 1640 medium (Logan, Utah) supplemented with 10% fetal bovine serum and 20 mM HEPES buffer, final pH 7.2, at 37° C. with a 5% CO2 atmosphere. Cultures were maintained at sub-confluent densities. Human umbilical vein endothelial cells (HUVEC) were purchased from Clonetics, a division of Cambrex (Walkersville, Md.). Cultures were established from cryopreserved stocks using Clonetics EGM-2 medium supplemented with 20 mM HEPES, final pH 7.2, at 37° C. with a 5% CO2 atmosphere.
For proliferation assays, cells were seeded with the appropriate medium into 96 well plates at 1,000-2,500 cells per well, depending on the cell line, and were incubated overnight. The following day, test compound, DMSO solution (negative control), or Actinomycin D (positive control) was added to the appropriate wells as 10× concentrated stocks prepared in phosphate buffered saline. The cell plates were then incubated for an additional 2-5 days, depending on the cell line, to allow proliferation to occur. To measure cell density, 50 μL of WST-1 solution (Roche Applied Science, Ind.) diluted 1:5 in phosphate buffered saline was added to each well, and the cells incubated for an additional 1-5 hrs., again depending on the cell line. Optical density was determined for each well at […] using a Tecan GeniosPro plate reader (RTP, NC). The percentage of cell growth was determined by comparing the cell growth in the presence of test compounds to the cells treated with DMSO vehicle (control, 100% growth) and cells treated with Actinomycin D (10 μM, 0% growth). […]

[1] = tested on: HSP-90 (heat shock protein 90); assay: Determination of affinity for HSP-90 (elution from purine affinity column, SDS-PAGE densitometry); format: binding; set-up: key: +++: very high; ++: high; +: moderate; conditions: elution of HSP-90 from purine affinity column with 20, 100 and 500 μM test compound
Procedure: Affinity of test compounds for HSP-90 was determined as follows: Protein mixtures obtained from a variety of organ tissues (for example: spleen, liver and lung) were reversibly bound to a purine affinity column to capture purine-binding proteins, especially HSP-90. The purine affinity column was washed several times, and then eluted with 20 μM, 100 μM, and 500 μM of test compound. Compounds of Formula I elute HP-90 in a dose-dependent manner vs. a control elution using dimethylsulfoxide. The elution profile of Formula I compounds was determined by 1-dimensional SDS polyacrylamide gel electrophoresis. Gels were stained with a fluorescent stain such as sypro ruby (a highly sensitive fluorescent protein stain that can readily detect less than 1 fmol of total protein, i.e., less than 0.04 ng for a 40 kDa protein) or silver nitrate. The gels were imaged using a standard flat bed gel imager and the amount of protein estimated by densitometry. The percent of HSP-90 protein eluted from the column at each concentration was determined and IC50 values were calculated from these estimates. The identity of a band containing HSP-90 was determined by protein sequencing using mass spectroscopy.
Compounds of the invention are inhibitors of HSP-90 (heat shock protein 90). Several exemplary compounds useful in the methods of the invention are listed below.

| Compound | IC50 (PC-3 cell proliferation) | relative binding affinity to HSP-90 [1] |
| --- | --- | --- |
| Cc1cc2c(n1-c1ccc(C(N)=O)cc1-c1ccsc1)CC(C)(C)CC2=O [Compound 70, 3-(3-thienyl)-4-(2,6,6-trimethyl-4-oxo-4,5,6,7-tetrahydro-1H-indol-1-yl)benzamide] | 5 to 50 µM | + |
| Cc1cc2c(n1-c1ccc(C(N)=O)c(-c3ccncc3)c1)CC(C)(C)CC2=O [Compound 77, 2-pyridin-4-yl-4-(2,6,6-trimethyl-4-oxo-4,5,6,7-tetrahydro-1H-indol-1-yl)benzamide] | 5 to 50 µM | ++ |
| Cc1nn(-c2ccc(C(N)=O)c(NC(CCO)CCO)c2)c2c1C(=O)CC(C)(C)C2 [Compound 121, 2-{[3-hydroxy-1-(2-hydroxyethyl)propyl]amino}-4-(3,6,6-trimethyl-4-oxo-4,5,6,7-tetrahydro-1H-indazol-1-yl)benzamide] | 0.5 to 5 µM | +++ |
| Cc1cn(-c2ccc(C(N)=O)c(Sc3ccncc3)c2)c2c1C(=O)CC(C)(C)C2 [Compound 105, 2-(pyridin-4-ylthio)-4-(3,6,6-trimethyl-4-oxo-4,5,6,7-tetrahydro-1H-indol-1-yl)benzamide] | 5 to 50 µM | ++ |
| Cc1nn(-c2ccc(C(N)=O)c(NC3CCC3)c2)c2c1C(=O)CC(C)(C)C2 [Compound 117, 2-(cyclobutylamino)-4-(3,6,6-trimethyl-4-oxo-4,5,6,7-tetrahydro-1H-indazol-1-yl)benzamide] | < 0.5 µM | +++ |
| CCCCSc1cc(-n2nc(C)c3c2CC(C)(C)CC3=O)ccc1C(N)=O [Compound 103, 2-(butylthio)-4-(3,6,6-trimethyl-4-oxo-4,5,6,7-tetrahydro-1H-indazol-1-yl)benzamide] | 0.5 to 5 µM | ++ |
| Cc1cn(-c2ccc(C(N)=O)c(NC(N)=O)c2)c2c1C(=O)CC(C)(C)C2 [Compound 55, 1-(2-carbamoyl-5-(3,6,6-trimethyl-4-oxo-4,5,6,7-tetrahydroindol-1-yl)phenyl)urea] | 0.5 to 5 µM | ++ |
| CC1(C)CC(=O)c2c(C(F)(F)F)nn(-c3ccc(C(N)=O)c(NCCNS(C)(=O)=O)c3)c2C1 [Compound 133, 4-[6,6-dimethyl-4-oxo-3-(trifluoromethyl)-4,5,6,7-tetrahydro-1H-indazol-1-yl]-2-({2-[(methylsulfonyl)amino]ethyl}amino)benzamide] | 5 to 50 µM | ++ |
| Cc1cc2c(n1-c1ccc(C(N)=O)c(NN3CCOCC3)c1)CC(C)(C)CC2=O [Compound 94, 2-(morpholin-4-ylamino)-4-(2,6,6-trimethyl-4-oxo-4,5,6,7-tetrahydro-1H-indol-1-yl)benzamide] | 5 to 50 µM | ++ |
| Cc1cn(-c2ccc(C(N)=O)c(N3CCN(C)CC3)c2)c2c1C(=O)CC(C)(C)C2 [Compound 99, 2-(4-methylpiperazin-1-yl)-4-(3,6,6-trimethyl-4-oxo-4,5,6,7-tetrahydro-1H-indol-1-yl)benzamide] | 5 to 50 µM | ++ |
| CCCCOc1cc(C(N)=O)ccc1-n1cc(C)c2c1CC(C)(C)CC2=O [Compound 53, 3-butoxy-4-(3,6,6-trimethyl-4-oxo-4,5,6,7-tetrahydroindol-1-yl)benzamide] | 5 to 50 µM | ++ |
| CC(=O)Nc1cc(-n2cc(C)c3c2CC(C)(C)CC3=O)ccc1C(N)=O [Compound 98, 2-(acetylamino)-4-(3,6,6-trimethyl-4-oxo-4,5,6,7-tetrahydro-1H-indol-1-yl)benzamide] | < 0.5 µM | +++ |
| CCc1cc(-n2nc(C)c3c2CC(C)(C)CC3=O)ccc1C(N)=O [Compound 102, 2-ethyl-4-(3,6,6-trimethyl-4-oxo-4,5,6,7-tetrahydro-1H-indazol-1-yl)benzamide] | 5 to 50 µM | ++ |
| COc1cc(Nc2cc(-n3c(C)cc4c3CC(C)(C)CC4=O)ccc2C(N)=O)cc(OC)c1OC [Compound 76, 2-[(3,4,5-trimethoxyphenyl)amino]-4-(2,6,6-trimethyl-4-oxo-4,5,6,7-tetrahydro-1H-indol-1-yl)benzamide] | 0.5 to 5 µM | +++ |
| Cc1nn(-c2ccc(C(N)=O)c(NC3CN(S(C)(=O)=O)C3)c2)c2c1C(=O)CC(C)(C)C2 [Compound 131, 2-{[1-(methylsulfonyl)azetidin-3-yl]amino}-4-(3,6,6-trimethyl-4-oxo-4,5,6,7-tetrahydro-1H-indazol-1-yl)benzamide] | – | ++ |
| Cc1cn(-c2ccc(C(N)=O)c(NCCN3CCOCC3)c2)c2c1C(=O)CC(C)(C)C2 [Compound 96, 2-[(2-morpholin-4-ylethyl)amino]-4-(3,6,6-trimethyl-4-oxo-4,5,6,7-tetrahydro-1H-indol-1-yl)benzamide] | – | +++ |
